In patent US4931443A, “Piperazine compound and pharmaceutical use thereof” (Yoshitomi Pharmaceutical Industries, Ltd., priority 1986, dated 1990):

Experiments:
[1] = biological target: T1, serotonin-1 receptor (Rattus norvegicus, UniProt P19327); assay: Affinity for serotonin-1 receptor: 3H-8-OH-DPAT binding assay; conditions: rat hippocampus synaptosomal membranes; 3H-8-OH-DPAT 0.2 nM; pH 7.4, 37° C., 10 min
T1 sequence (P19327 1-422): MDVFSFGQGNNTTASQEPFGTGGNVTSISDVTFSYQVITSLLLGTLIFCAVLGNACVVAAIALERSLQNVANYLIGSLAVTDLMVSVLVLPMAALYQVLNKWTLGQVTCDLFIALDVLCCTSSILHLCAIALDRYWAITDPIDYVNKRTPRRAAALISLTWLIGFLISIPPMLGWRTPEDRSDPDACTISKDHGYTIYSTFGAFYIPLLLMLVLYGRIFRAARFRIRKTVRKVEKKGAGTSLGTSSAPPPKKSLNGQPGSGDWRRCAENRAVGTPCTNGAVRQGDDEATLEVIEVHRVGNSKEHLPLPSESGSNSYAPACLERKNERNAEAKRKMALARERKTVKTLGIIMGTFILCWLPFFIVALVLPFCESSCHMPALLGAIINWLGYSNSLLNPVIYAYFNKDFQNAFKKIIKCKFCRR
Description: (§1) Experiment 3 Affinity for serotonin receptor
(1) Affinity for serotonin-1 receptor: ^3 H-8-hydroxy-2-(dipropylamino)tetralin(^3 H-8-OH-DPAT) binding assay
Preparation of synaptosomal membranes and ^3 H-8-OH-DPAT binding assay were performed according to the method of Hall et al(Journal of Neurochemistry, vol. 44, p. 1685, 1985).
Rat hyppocampus which was maintained in a freezed state was homogenized in 40-fold volumes of ice-cold 50 mM Tris-HCl buffer (pH 7.4) and centrifugated at 500 g for 10 minutes at 0° C. Further, the supernatant was centrifugated at 40,000 g for 20 minutes at 0° C. and the pellets thus obtained were homogenized in 40-fold volumes of the same buffer as mentioned above, and then incubated at 37° C. for 10 minutes. After incubation, the suspension was centrifugated at 40,000 g for 20 minutes at 0° C. The obtained pellets were washed by repeating twice the procedures of homogenization in the above-mentioned buffer and centrifugation. The suspension of synaptosomal membranes was prepared by homogenizing the pellets finally obtained in 60-fold volumes of 50 mM Tris-HCl buffer (pH 7.4) containing 1 mM manganese chloride.
To 900 μl of the membrane suspension were added 50 μl of ^3 H-8-OH-DPAT solution (final concentration: 0.2 nM), and 50 μl of the test compound solution or the solvent and the mixture was incubated at 37° C. for 10 minutes. After incubation, 5 ml of ice-cold 50 mM Tris-HCl buffer (pH 7.4) was added, and immediately thereafter, the mixture was filtered with suction through Whatman GF/B filter. The filter was washed twice with 5 ml of the same buffer as mentioned above and the radioactivity on the filter was measured by a liquid scintillation counter.

[2] = tested on: apomorphine-induced motility; assay: Experiment 1 Anti-apomorphine action (motility, Varimex); type: in vivo, male dd-strain mice; conditions: Mus musculus, po; apomorphine 0.5 mg/kg s.c. 1 h after compound; motility 20 min; dose lowering motility of control by 50%
Description: Experiment 1 Anti-apomorphine action
Groups of 3 male dd-strain mice (4 groups/dose) were used. Test compounds were orally administered and an hour later, 0.5 mg/kg of apomorphine was subcutaneously administered. Immediately thereafter, motility was measured with the aid of Varimex (manufactured by Columbus Co.) for 20 minutes. The ED50 values, the dose of test compound required to lower the motility of the control group by 50%, were graphically calculated.

[3] = biological target: T2, serotonin-2 receptor (Rattus norvegicus, UniProt P14842); assay: Affinity for serotonin-2 receptor: 3H-spiperone binding assay; conditions: rat cerebral cortex synaptosomal membranes; 3H-spiperone 0.5 nM; 37° C., 20 min
T2 construct: from tissue; host or cells: rat cerebral cortex, synaptosomal membranes
T2 sequence (P14842 whole entry): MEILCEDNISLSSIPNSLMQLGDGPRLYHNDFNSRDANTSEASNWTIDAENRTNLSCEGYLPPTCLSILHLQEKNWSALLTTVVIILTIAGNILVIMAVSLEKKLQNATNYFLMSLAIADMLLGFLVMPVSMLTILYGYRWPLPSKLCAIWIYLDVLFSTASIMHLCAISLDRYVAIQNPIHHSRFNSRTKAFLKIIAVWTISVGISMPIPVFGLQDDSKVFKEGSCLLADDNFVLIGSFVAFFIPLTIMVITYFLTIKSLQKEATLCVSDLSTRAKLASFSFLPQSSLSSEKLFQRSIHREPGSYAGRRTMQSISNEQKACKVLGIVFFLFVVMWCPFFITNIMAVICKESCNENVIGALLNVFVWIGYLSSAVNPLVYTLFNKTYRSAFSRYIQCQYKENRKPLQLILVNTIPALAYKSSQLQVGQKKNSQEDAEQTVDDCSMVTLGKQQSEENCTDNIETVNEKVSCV
Description: as §1
(2) Affinity for serotonin-2 receptor: ^3 H-spiperone bindig assay
The preparation of synaptosomal membranes and binding assay were performed according to the method of Peroutka and Snyder (Molecular Pharmacology, vol. 16, p. 687, 1979).
Rat cerebral cortex which was maintained in a freezed state was homogenized in 20-fold volumes of ice-cold 0.32 M sucrose and centrifugated at 1,000 g for 10 minutes at 0° C. The supernatant was centrifugated at 50,000 g for 15 minutes at 0° C. The obtained pellets were homogenized in 20-fold volumes of ice-cold 50 mM Tris-HCl buffer (pH 7.5). The mixture was incubated at 37° C. for 10 minutes, and further centrifugated at 50,000 g for 15 minutes at 0° C. The suspension of synaptosomal membrane was prepared by homogenizing the obtained pellets in 60-fold volumes of the buffer mentioned above containing 1.1 mM ascorbic acid, 4 mM calcium chloride and 10 μM pargyline.
To 900 μl of the suspension of synaptosomal membrane were added 50 μl of ^3 H-spiperone (final concentration : 0.5 nM) and 50 μl of the test compound solution or the solvent, and then incubated at 37° C. for 20 minutes. After the completion of incubation, 5 ml of ice-cold buffer as mentioned above was added. Immediately thereafter, the mixture was filtered with suction through Whatman GF/B filter. The filter was washed twice with 5 ml of the same buffer as mentioned above and the radioactivity on the filter was measured by a liquid scintillation counter.

[4] = tested on: serotonin-induced head-twitch; assay: Experiment 2 Anti-serotonin action (head-twitch method in mice); type: in vivo, male dd-strain mice; conditions: Mus musculus, po; serotonin 40 μg/0.02 ml i.c.v. 1 h after compound; head-twitch counted 5 min; probit method
Description: Experiment 2 Anti-serotonin action (head-twitch method in mice)
Groups of 8-30 male dd-strain mice were used. The test compounds were orally administered and an hour later, 40 μg/0.02 ml of serotonin was intracerebroventricularly administered. Ten minutes thereafter, the numbers of head-twitch were measured for 5 minutes. The ED50 values calculated by the probit method considering the number of head-twitch induced by the administration of serotonin with less than once as the inhibitory action by the test compound.

[5] = tested on: catalepsy; assay: Experiment 4 Cataleptogenic action; type: in vivo, female Wistar-strain rats; conditions: rats, index of extrapyramidal side effects
Description: (§2) Then, the cataleptogenic action of the compound of Example 15 was studied for the purpose of measuring the degree of the extrapyramidal side effect. […]
(§3) Experiment 4 Cataleptogenic action
(§4) Groups of 10 female Wistar-strain rats were used. Catalepsy was measured by the partly modified method of Simon et al (Journal of Pharmacy and Pharmacology, vol. 22, P. 546, 1970). The front paws of the rats were placed gently on a vertical grid (4 mm diameter, 9 cm height).
(§5) After the compound of Example 15 was orally administered, catalepsy was measured with the passage of time in 9 hours.

[6] = Experiment 4 Cataleptogenic action; type: in vivo, female Wistar-strain rats; conditions: rat, in vivo, po; orally; peak time of catalepsy within 9 hours; probit method
Description: as §2, §3, §4, §5

Cc1cccc(N2CCN(CCCCc3ccc(C4CCC(=O)N4)cc3)CC2)c1 (centres unmarked) [Example 1, 5-[4-(4-(4-(3-methylphenyl)piperazin-1-yl)butyl)phenyl]pyrrolidin-2-one]
Ki [1]: 0.61 nM | ED50 [2]: 13 mg/kg | Ki [3]: 23 nM | ED50 [4]: 0.53 mg/kg

Cl.O=C1CCC(c2ccc(CCN3CCN(c4cccc(C(F)(F)F)c4)CC3)cc2)N1 (centres unmarked) [Example 2, 5-[4-(2-(4-(3-trifluoromethylphenyl)piperazin-1-yl)ethyl)phenyl]pyrrolidin-2-one hydrochloride]
Ki [1]: 0.31 nM | ED50 [2]: 15 mg/kg | Ki [3]: 78 nM | ED50 [4]: 0.15 mg/kg

O=C1CCC(c2ccc(CCCCN3CCN(c4ccc(F)cc4)CC3)cc2)N1 (centres unmarked) [Example 6, 5-[4-(4-(4-(4-fluorophenyl)piperazin-1-yl)butyl)phenyl]pyrrolidin-2-one]
Ki [1]: 4.7 nM | ED50 [2]: 4.2 mg/kg | Ki [3]: 66 nM | ED50 [4]: 2.2 mg/kg

COc1ccccc1N1CCN(CCCCc2ccc(C3CCC(=O)N3)cc2)CC1 (centres unmarked) [Example 7, 5-[4-(4-(4-(2-methoxyphenyl)piperazin-1-yl)butyl)phenyl]pyrrolidin-2-one]
Ki [1]: 0.28 nM | ED50 [2]: 2.1 mg/kg | Ki [3]: 480 nM | ED50 [4]: 3.5 mg/kg

O=C1CCC(c2ccc(CCCN3CCN(c4ccccc4)CC3)cc2)N1 (centres unmarked) [Example 9, 5-[4-(3-(4-phenylpiperazin-1-yl)propyl)phenyl]pyrrolidin-2-one]
Ki [1]: 4.5 nM | ED50 [2]: 9.5 mg/kg | Ki [3]: 250 nM | ED50 [4]: 2.4 mg/kg

Cl.Cl.O=C1CCC(c2ccc(CCCCN3CCN(c4cccc(C(F)(F)F)c4)CC3)cc2)N1 (centres unmarked) [Example 15, 5-[4-(4-(4-(3-trifluoromethylphenyl)piperazin-1-yl)butyl)phenyl]pyrrolidin-2-one dihydrochloride]
Ki [1]: 0.4 nM | cataleptogenic action (in words) [5]: very weak cataleptic action | ED50 [6]: 250 mg/kg | ED50 [2]: 4.2 mg/kg | Ki [3]: 63 nM | ED50 [4]: 0.32 mg/kg
